According to patent US8673976B2, “Medicament for prophylactic and/or therapeutic treatment of hepatic steatosis or non-alcoholic steatohepatitis” (Kowa Company, Ltd., priority 2007, dated 2014):

Columns and labels:
[1] = tested on: C57BL/6N mice; test: Evaluation of NIK-333 and ATRA for toxicity in mice (Example 2); type: in vivo, mouse; settings: oral once per day for 2 weeks, versus soybean oil control
Method: 7-Week old C57BL/6N mice (Charles River Japan) were given with MK-333 or ATRA once per day for 2 weeks by forcible continuous oral administration. After completion of the test, S-TG concentrations and testis weights of individual mice were measured. To the control group, soybean oil was administered.

[2] = tested on: mice; settings: literature; cited from earlier work
[3] = tested on: rats; settings: literature; cited from earlier work
[4] = tested on: SD male rats on high fat diet (HFD32); test: Action of NIK-333 for decreasing hepatic lipid amount in high fat diet rats (Example 1); type: in vivo, rat; settings: oral once a day for 8 weeks, serum
Source text: For the experiment, 6-week old SD male rats (Charles River Japan) were used. HFD32 (Clea Japan) was used for the high fat diet group, and CE-2 (Clea Japan) was used for the normal control group. The feeding was restricted to 25±3 g for both of the groups. Administration of NIK-333 was started at the same time as the start of the loading of the high fat diet, and the drug was given once a day for 8 weeks by forcible continuous oral administration. After completion of the test, each liver was extracted, and triglyceride (H-TG) amount and cholesterol (H-T-chol) amount in the liver were measured. Hematoxylin-eosin (H.E.) and Oil Red O (O.R.) staining samples were prepared from the extracted liver, and histopathological examination was performed. Degree of fatty degeneration of the liver was graded into five categories on the basis of the examination of the H.E. staining sample, and scores were assigned. Further, from the O.R. staining sample, O.R. positive area in the liver sample area was calculated by using an image analyzer. Furthermore, triglyceride (S-TG), total cholesterol (S-T-chol), alanine aminotransferase (S-ALT), and aspartate aminotransferase (S-AST) levels in serum were measured.

[5] = tested on: recurrence of hepatoma; settings: clinical, during the administration; cited from earlier work

| SMILES | S-TG concentration (FIG. 5) [1] | testis weight (FIG. 6) [1] | testis weight [2] | testis weight [3] | lipid concentration in blood (S-TG, S-T-chol; FIG. 3) [4] | liver function failure or other adverse effects caused by retinoids [5] |
| --- | --- | --- | --- | --- | --- | --- |
| CC1=C(/C=C/C(C)=C/C=C/C(C)=C/C(=O)O)C(C)(C)CCC1 [ATRA, all-trans-retinoic acid] | increases the S-TG concentration | markedly decreases testis weight | decreased testis weight | decreased testis weight |  |  |
| CC(C)=CCC/C(C)=C/CC/C(C)=C/C=C/C(C)=C/C(=O)O [NIK-333, (2E,4E,6E,10E)-3,7,11,15-tetramethyl-2,4,6,10,14-hexadecapentaenoic acid] | does not affect the concentration | does not affect the weight |  |  | without affecting lipid concentration in blood | not substantially observed |
